# Earlier results as cited in US6503396B2 (priority 2000, dated 2003).
# What was measured:
# [1] = tested on: ovarian cancer; details: ovarian cancer patients who exhibited no response to conventional anti-cancer drugs
# [2] = tested on: breast cancer; details: breast cancer patients who exhibited no response to conventional anti-cancer drugs
# [3] = tested on: lung cancer; details: lung cancer patients who exhibited no response to conventional anti-cancer drugs
structure (smiles),measurement,setting,value
CC(=O)O[C@H]1C(=O)[C@@]2(C)[C@H]([C@H](OC(=O)c3ccccc3)[C@]3(O)C[C@H](OC(=O)[C@H](O)[C@@H](NC(=O)c4ccccc4)c4ccccc4)C(C)=C1C3(C)C)[C@]1(OC(C)=O)CO[C@@H]1C[C@@H]2O [taxol],response rate to taxol,[1],30%
same,response rate to taxol,[2],50%
same,response rate to taxol,[3],20%
